Measurements as given in US11370775B2, “Substituted benzimidazole derivatives as D-amino acid oxidase (DAAO) inhibitors” (NATIONAL TAIWAN UNIVERSITY, priority 2016, dated 2022).

Columns and labels:
[1] = biological target: T1, DAO in SK-N-SH neuroblastoma cells (Homo sapiens, UniProt P14920); assay: Cell-based DAO assay in SK-N-SH cells; parameters: key to Relative DAO activity normalize to DMSO at Final Conc. 100 uM / Relative DAO activity normalize to DMSO at Final Conc. 10 uM: fraction of DMSO-control DAO activity (1 = DMSO); conditions: SK-N-SH 1.25*10^5 cells/well, drug treated for 3.5 hr; for IC50: 50 mM D-serine
T1 construct: endogenous in cells; host or cells: SK-N-SH neuroblastoma cells (ATCC)
Description: The SK-N-SH neuroblastoma cell line was purchased from American Type Culture Collection (ATCC). It was cultured in MEM media (Invitrogen/GIBCO, Rockville, Md.) supplemented with 10% fetal bovine serum, 1×NEAA (Invitrogen/GIBCO) at 37° C. with 5% CO2 in a humidified atmosphere. Cells were trypsinized and plated into a black 96-well plate (NUNC No. 237108) at a density of 125,000 cells/well in 50 μl before cell-based DAO assay.
The cellular DAO activity assay was using a method modified according to the report of Brandish et al. (Brandish, P. E., et al., A cell-based ultra-high-throughput screening assay for identifying inhibitors of D-amino acid oxidase. J Biomol Screen, 2006. 11(5): p. 481-7). SK-N-SH cells were suspended in assay buffers of HANKS buffer solution (Invitrogen/GIBCO No. 14025-092) with 20 mM HEPES. D-serine of (final concentration 50 mM) was added in each well as the substrate for DAO enzyme. The Amplex Red Hydrogen Peroxide/Proxidase Assay Kit (Molecular Probes/Invitrogen, cat. A22188) was used to measure H2O2 production which diffused across the cell membrane into the assay medium after DAO reaction. After seeding cells into black 96-well plate (Nunc No. 237108, Denmark), 50 μl of SK-N-SH cells (125,000 cells/well) was mixed with 50 μl drug solution (2.5 fold of interesting final concentration) and incubate at 37° C. with 5% CO2 in a humidified atmosphere for 30 minutes. After 30 minutes later, 25 μl of a 5 fold mixture containing D-serine, horseradish peroxidase (HRP), and Amplex Red was added into wells containing 100 μl of cell-drugs mixture and incubated at 37° C. with 5% CO2 in a humidified atmosphere for 3 hours. The final concentration of DMSO is below 1%. The fluorescence signal was then detected in SpectraMax M2e microplate reader (Molecular Devices, USA) with excitation at 544 nm and emission at 590 nm. The optimized assay buffer contained a final concentration of 50 mM D-serine, 0.625 units HRP, and 50 μM Amplex Red in a 125 μl assay volume.

[2] = system: MK-801-induced hyperlocomotion in C57BL/6 mice; assay: Open field, MK-801-induced hyperlocomotion; type: in vivo; conditions: for Effect on MK-801 induced hyperlocomotion (open field): MK-801 0.2 mg/kg i.p., mice; for Effect on MK-801-induced hyperlocomotion (FIG. 1): different dosages, compared to the MK-801 group
Description: (§1) The NMDA-receptor antagonist MK-801-induced negative or cognitive deficits in C57BL/6 mice were in a well-established drug-induced schizophrenia mouse model and as a useful pharmacological animal model to identify if the RS-D7, its analog and its prodrug improve the symptoms through the NMDA receptor.
(§2) All wild-type (WT) mice used in this study were backcrossed onto a C57BL/6J background from the Laboratory Animal Center of National Taiwan University Hospital, and all behavioral examinations were conducted in WT mice. For acclimatizing to laboratory conditions, the mice were allowed free access to food and water and were housed in groups with a 12 hours light-dark cycle in a temperature and humidity controlled room of the Psychology Department, National Taiwan University. All animals within the age of 3 months were housed individually one week before experiment testing with food and water available ad libitum. In the beginning of the experiments, the mice were handled and weighted daily at least 1 week before the behavioral experiments. The entire animal procedures were performed according to protocols approved by the Animal Care and Use Committee established by the National Taiwan University.
(§3) MK-801 was dissolved in saline and administered at a volume of 0.01 ml/g body weight. RS-D7, Drug 12083 (analog of RS-D7) and was freshly dissolved in 1% CMC to the concentration of 2 mg/ml before usage. Prodrug 28095 was freshly dissolved in NMP:HP-beta-CD:H2O (5:25:70) to the concentration of 2 mg/ml before usage. All animals were given vehicle (saline) or MK-801 (0.2 mg/kg, i.p.) 25 minutes before the behavioral experiments. Both vehicle (1% CMC or NMP:HP-beta-CD:H2O) and experimental groups (RS-D7, Drug 12083 or Prodrug 28095) were treated after 5 minutes MK-801 administration with the appropriate dose via P.O. injections (at a volume of 0.01 ml/g body weight).
(§4) For investigating the treatment effect of RS-D7 for negative and cognitive symptoms, a series of three behavioral tests (run from the first to the third week), which included open field, sucrose preference test and prepulse inhibition were performed in sequence with a 1-week interval between tests.
To assess spontaneous locomotor activity, each subject was placed into the center of an open-field apparatus (25.40*25.40*40.64 cm^3, Coulbourn Instruments, Whitehall, Pa., USA) under dim lighting condition (60 lx). Motor activity parameters (including total travel distance and travel distance per 10 minutes) were monitored and recorded over a 60 minutes period by using Smart video tracking software (Panlab, Harvard apparatus, US). For comparing the treatment effects of different treatment groups, the percentage change of rescue effect on MK-801-induced hyperlocomotion was calculated using the following formula: %=(rescue effect of drug−MK-801 effect)×100%/MK-801 effect.

[3] = system: MK-801-induced PPI deficit in C57BL/6 mice; assay: Prepulse inhibition, MK-801-induced PPI deficit; type: in vivo; conditions: MK-801 0.2 mg/kg i.p.
Description: as §1, §2, §3, §4
To assess the sensorimotor gating function, each mouse was tested with the SR-LAB startle apparatus (San Diego Instruments, San Diego, Calif., USA). The background noise was 72 dB during testing. Each session was initiated with a 5 minutes acclimatization period followed by 64 trials, consisting of pulse-alone (P-alone) trials, prepulse pulse (pp+P) trials, and no stimulation (nostim) trials. A P-alone trial was a 120 dB white noise burst of 40 msec. In the pp+P trials, the 120 dB pulse was preceded (by 100 msec) by a 20 msec of white noise prepulse burst of 78 dB (PP6), 82 dB (PP10), or 90 dB (PP18). The nostim trials consisted of background noise only. The session began and ended with a block of six presentations of the P-alone trial. Between these two blocks, the rest of the 52 trials were performed pseudorandomly and separated by intertrial intervals of 15 sec on average (varying between 10 and 20 sec). PPI was calculated as a percentage of the startle response using the formula: % PPI=100× [(P-alone score)-(pp+P score)]/(pulse-alone score), where the pulse-alone score was the average of the pulse-alone values from the in-between block of 52 trials.

T1 sequence (P14920 whole entry): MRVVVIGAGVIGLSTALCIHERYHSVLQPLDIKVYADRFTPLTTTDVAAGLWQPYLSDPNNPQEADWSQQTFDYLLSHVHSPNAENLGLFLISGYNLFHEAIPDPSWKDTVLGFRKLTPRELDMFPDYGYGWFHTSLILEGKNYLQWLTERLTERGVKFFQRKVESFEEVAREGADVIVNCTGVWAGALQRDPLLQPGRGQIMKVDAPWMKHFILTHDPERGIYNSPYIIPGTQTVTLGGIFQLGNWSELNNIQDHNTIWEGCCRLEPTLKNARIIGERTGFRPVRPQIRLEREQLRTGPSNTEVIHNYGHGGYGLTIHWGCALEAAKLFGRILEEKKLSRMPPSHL

Relative DAO activity normalize to DMSO at Final Conc. 10 uM [1]	Relative DAO activity normalize to DMSO at Final Conc. 100 uM [1]	IC50 [1] [µM]	Structure (SMILES)	Effect on MK-801 induced hyperlocomotion (open field) ([2]; 100 mg/kg P.O.)	Effect on MK-801 induced hyperlocomotion (open field) ([2]; 200 mg/kg P.O.)	Effect on MK-801 induced hyperlocomotion (open field) ([2]; 400 mg/kg P.O.)	Effect on MK-801-induced hyperlocomotion (FIG. 1) [2]	Effect on MK-801 induced PPI deficit ([3]; 100 mg/kg P.O.)	Effect on MK-801 induced PPI deficit ([3]; 200 mg/kg P.O.)	Effect on MK-801 induced PPI deficit ([3]; 400 mg/kg P.O.)	Effect on MK-801 induced hyperlocomotion (open field) ([2]; 20 mg/kg P.O.)	Effect on MK-801 induced hyperlocomotion (open field) ([2]; 40 mg/kg P.O.)	Effect on MK-801 induced PPI deficit ([3]; 20 mg/kg P.O.)	Effect on MK-801 induced PPI deficit ([3]; 40 mg/kg P.O.)
1.05	0.69	141	COc1c(C)cnc(C[S+]([O-])c2nc3ccc(O)cc3[nH]2)c1C (stereo not drawn) [RS-D7, reference compound]	did not display the treatment effect	rescued the MK-801 induced hyperlocomotion	rescued the MK-801 induced hyperlocomotion	can rescue the MK-801-induced hyperlocomotion	significantly alleviated MK-801 induced PPI deficit	significantly alleviated MK-801 induced PPI deficit	significantly alleviated MK-801 induced PPI deficit				
0.62	0.48	74.2	COc1c(C)cnc(CSc2nc3cc(C(=O)O)ccc3n2CCC2=CCCCC2)c1C [compound 12083, 1-(2-(cyclohex-1-en-1-yl)ethyl)-2-(((4-methoxy-3,5-dimethylpyridin-2-yl)methyl)thio)-1H-benzo[d]imidazole-5-carboxylic acid]				can rescue the MK-801-induced hyperlocomotion				alleviated MK-801 induced hyperlocomotion deficits	alleviated MK-801 induced hyperlocomotion deficits	significantly alleviated MK-801 induced PPI deficit	significantly alleviated MK-801 induced PPI deficit
